Data reported in patent US9364479B2, “Use of a receptor-type kinase modulator for treating polycystic kidney disease” (SYMPHONY EVOLUTION, INC., priority 2010, dated 2016).
Where two headings read alike, the source gives them in different places.

Legend:
GABA A, Agonist Site = experiment: NovaScreen assay; assay type: binding
in vitro = in vitro ADME, mouse and human; conditions: rat, mouse, human, plasma
[1] = molecular target: T1, Cholecystokinin, CCK2 (CCKB) (Homo sapiens, UniProt P32239); experiment: NovaScreen assay; assay type: binding; conditions: read-out: Inhibition, 10 μM XL-647
T1 construct: NovaScreen

Acetylcholinesterase = molecular target: T2, Acetylcholinesterase (Homo sapiens, UniProt P22303); experiment: NovaScreen assay; assay type: biochemical; conditions: read-out: Inhibition, 10 μM XL-647
T2 construct: NovaScreen

ErbB2 [2] = molecular target: T3, ErbB2 (Homo sapiens, UniProt P04626); experiment: AlphaScreen tyrosine kinase assay; assay type: biochemical; set-up: residues Q679-V1255 of human ErbB2, Proqinase; purchased Proqinase; conditions: ATP at Km
Method: An AlphaScreen tyrosine kinase assay was used to measure ErbB2 and Flt-4 activity. Donor beads coated with streptavidin and acceptor beads coated with PY100 anti-phosphotyrosine antibody (Perkin-Elmer) were used. Biotinylated poly(Glu,Tyr) 4:1 was used as the substrate. Substrate phosphorylation was measured by luminescence following donor-acceptor bead addition followed by complex formation. Test compound, 3 μmol/L ATP, 3 nmol/L biotinylated poly(Glu,Tyr) 4:1, and 1 nmol/L ErbB2 (residues Q679-V1255 of human ErbB2, Proqinase) or Flt-4 (residues D725-R1298 of human Flt-4, Proqinase) were combined in a volume of 20 μL Assay Buffer (20 mM TrisHCl, pH 7.5, 10 mM MgCl2, 3 mM MnCl2, 1 mM DTT, 0.01% Triton) in a 384-well white, medium-binding microtiter plate (Greiner). Reaction mixtures were incubated for 1 h at room temperature. Reactions were quenched by addition of 10 μL of 15 to 30 μg/mL AlphaScreen bead suspension containing 75 mmol/L HEPES (pH 7.4), 300 mmol/L NaCl, 120 mmol/L EDTA, 0.3% bovine serum albumin, and 0.03% Tween 20. After 2 to 16 h of incubation at room temperature, plates were read using an AlphaQuest reader (Perkin-Elmer).

Tie-2 = Tie-2 (Homo sapiens, UniProt Q02763); experiment: Radiometric kinase assay; assay type: biochemical
Method: (§1) A radiometric ^33P-Phosphoryl transfer kinase assay was used to measure EphB4, insulin-like growth factor-I receptor (IGFR-1), and insulin receptor (IRK) activity. Reactions were performed in 384-well white, clear bottom, high-binding microtiter plates (Greiner). Plates were coated with 2 μg/well peptide substrate in a 50 μL volume. […] The coated plates were washed once with 50 μL assay buffer following overnight incubation at room temperature. Test compound and either 5 nmol/L EphB4 (residues E605-E890 of human EphB4 containing a six histidine NH2-terminal tag, expressed in a baculovirus expression system and purified using metal chelate chromatography), 4 nmol/L insulin-like growth factor-I receptor (residues M954-C1367 of human insulin-like growth factor-I receptor, Proqinase GmbH), or 15 nmol/L insulin receptor 1 (residues P948-S1343 of human insulin receptor 1, Proqinase) were combined with [^33P]g-ATP (5 μmol/L, 3.3 μCi/nmol) in a total volume of 20 μL. The reaction mixture was incubated at room temperature for 1.5 to 2.5 h and terminated by aspiration. The microtiter plates were subsequently washed six times with 0.05% Tween-PBS buffer. Scintillation fluid (50 μL/well) was added and incorporated ^33P was measured by liquid scintillation spectrometry using a MicroBeta scintillation counter (Perkin-Elmer). […]

Flt1 = Flt1 (Homo sapiens, UniProt P17948); experiment: Radiometric kinase assay; assay type: biochemical
Method: as §1

[3] = Clinical safety data, 159 subjects with cancer; conditions: human, in vivo
ErbB2 [4] = molecular target: T3, ErbB2; experiment: Mechanism of action study / Ki determination; assay type: biochemical; set-up: residues Q679-V1255 of human ErbB2, Proqinase; purchased Proqinase
Method: Enzymatic activity was measured by standard methods after dilution of the enzyme-inhibitor complex.

PCK rat = assay type: in vivo; conditions: for CT-CI / Creatinine / Kidney/Body weight: PN Day 90
Text: The phenotype of the PCK rat is different from that of humans in that it has a slower disease progression and slower decline in renal function. The PCK rats came from a mutated colony of Sprague-Dawley rats from Fujita Health University and were housed at the Medical College of Wisconsin.
Two hours after last injection on PN90 the rats were sacrificed and the kidneys and liver were removed and weighed. Post-mortem measurements included KW/BW ratio and cystic index (CI) using renal sections from the cortex, medulla, and papilla. CT-CI was then determined from cystic index which was based on renal cyst size at 15 day intervals from PN0 to PN135. Renal function was assessed with BUN and creatinine levels from cardiac puncture.

InsR = molecular target: T4, InsR (Homo sapiens, UniProt P06213); experiment: Radiometric 33P-phosphoryl transfer kinase assay; assay type: biochemical; conditions: ATP at Km
T4 construct: residues P948-S1343 of human insulin receptor 1, Proqinase; purchased Proqinase
Method: (§2) Dose-response experiments were done using 10 different inhibitor concentrations in 384-well microtiter plates. The ATP concentration used for each assay was equivalent to the Km for each kinase. IC50 values were calculated by nonlinear regression analysis using the four-variable equation: Y=min+(max−min)/[1+([I]/IC50)N], where Y is the observed signal, [I] is the inhibitor concentration, min is the background signal in the absence of enzyme (0% enzyme activity), max is the signal in the absence of inhibitor (100% enzyme activity), IC50 is the inhibitor concentration required at 50% enzyme inhibition, and N represents the empirical Hill slope as a measure of cooperativity.
(§3) A radiometric ^33P-Phosphoryl transfer kinase assay was used to measure EphB4, insulin-like growth factor-I receptor (IGFR-1), and insulin receptor (IRK) activity. Reactions were performed in 384-well white, clear bottom, high-binding microtiter plates (Greiner). Plates were coated with 2 μg/well peptide substrate in a 50 μL volume. […] The coated plates were washed once with 50 μL assay buffer following overnight incubation at room temperature. Test compound and either 5 nmol/L EphB4 (residues E605-E890 of human EphB4 containing a six histidine NH2-terminal tag, expressed in a baculovirus expression system and purified using metal chelate chromatography), 4 nmol/L insulin-like growth factor-I receptor (residues M954-C1367 of human insulin-like growth factor-I receptor, Proqinase GmbH), or 15 nmol/L insulin receptor 1 (residues P948-S1343 of human insulin receptor 1, Proqinase) were combined with [^33P]g-ATP (5 μmol/L, 3.3 μCi/nmol) in a total volume of 20 μL. The reaction mixture was incubated at room temperature for 1.5 to 2.5 h and terminated by aspiration. The microtiter plates were subsequently washed six times with 0.05% Tween-PBS buffer. Scintillation fluid (50 μL/well) was added and incorporated ^33P was measured by liquid scintillation spectrometry using a MicroBeta scintillation counter (Perkin-Elmer).

IGF1R = molecular target: T5, IGF1R (Homo sapiens, UniProt P08069); experiment: Radiometric 33P-phosphoryl transfer kinase assay; assay type: biochemical; conditions: ATP at Km
T5 construct: residues M954-C1367 of human insulin-like growth factor-I receptor, Proqinase GmbH; purchased Proqinase GmbH
Method: as §2, §3

EphB4 = molecular target: T6, EphB4 (Homo sapiens, UniProt P54760); experiment: Radiometric 33P-phosphoryl transfer kinase assay; assay type: biochemical; conditions: ATP at Km
T6 construct: residues E605-E890 of human EphB4 containing a six histidine NH2-terminal tag; His6 (N); made in house; host or cells: baculovirus expression system
T6 sequence (P54760 605-890): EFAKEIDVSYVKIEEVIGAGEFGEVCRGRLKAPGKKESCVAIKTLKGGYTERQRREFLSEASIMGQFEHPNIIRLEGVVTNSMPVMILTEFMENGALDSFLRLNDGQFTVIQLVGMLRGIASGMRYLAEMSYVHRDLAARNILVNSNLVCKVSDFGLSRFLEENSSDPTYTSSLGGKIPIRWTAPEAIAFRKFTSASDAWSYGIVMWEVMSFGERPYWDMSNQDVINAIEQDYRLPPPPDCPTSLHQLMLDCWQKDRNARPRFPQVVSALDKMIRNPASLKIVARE
Method: as §2, §3

Estrogen = experiment: NovaScreen assay; assay type: binding
wt EGFR (A431) = wt EGFR (A431) (Homo sapiens, UniProt P00533); experiment: Cell-based EGFR autophosphorylation assay in A431 cells; conditions: read-out: IC50, EGFR phosphorylation
Method: A431 contains overexpressed wt human EGFR.
A431 and MDA-MB-231 cell lines were maintained and propagated as monolayer cultures in DMEM (Mediatech) containing L-glutamine supplemented with 10% heat-inactivated fetal bovine serum (Hyclone), 100 units/mL penicillin G, 100 μg/mL streptomycin (1% penicillin/streptomycin, Mediatech), and 1% nonessential amino acids (Mediatech) at 37° C. in a humidified 5% CO2 incubator.
A431 cells were seeded at 5×10^4 per well in 96-well microtiter plates (3904 Costar, VWR) and incubated in fully supplemented DMEM for 16 h after which growth medium was replaced with serum-free DMEM and the cells were incubated for an additional 24 h. […] After treatment, cell monolayers were washed with cold PBS and immediately lysed with cold lysis buffer (50 mmol/L Tris-HCl (pH 8.0), 150 mmol/L NaCl, 10% glycerol, 1% NP40, 0.1% SDS, 0.5% sodium deoxycholate, 1 mmol/L EDTA, 50 mmol/L NaF, 1 mmol/L sodium pyrophosphate, 1 mmol/L sodium orthovanadate, 2 mmol/L phenylmethylsulfonyl fluoride, 10 μg/mL aprotinin, 5 μg/mL leupeptin, 5 μg/mL pepstatin). […] Horseradish peroxidase activity was determined by reading the plates in a Victor2 plate reader following addition of the ELISA Femto substrate (Pierce).

[5] = 7.5 mg/kg/day, PN Day 90, 7.5 mg/kg/day
[6] = 7.5 mg/kg/day, PN Day 90, listed as PRIM-001, 7.5 mg/kg/day
[7] = 15 mg/kg/day, PN Day 90, 15 mg/kg/day
[8] = 15 mg/kg/day, PN Day 90, listed as PRIM-001, 15 mg/kg/day

T3 sequence (P04626 679-1255): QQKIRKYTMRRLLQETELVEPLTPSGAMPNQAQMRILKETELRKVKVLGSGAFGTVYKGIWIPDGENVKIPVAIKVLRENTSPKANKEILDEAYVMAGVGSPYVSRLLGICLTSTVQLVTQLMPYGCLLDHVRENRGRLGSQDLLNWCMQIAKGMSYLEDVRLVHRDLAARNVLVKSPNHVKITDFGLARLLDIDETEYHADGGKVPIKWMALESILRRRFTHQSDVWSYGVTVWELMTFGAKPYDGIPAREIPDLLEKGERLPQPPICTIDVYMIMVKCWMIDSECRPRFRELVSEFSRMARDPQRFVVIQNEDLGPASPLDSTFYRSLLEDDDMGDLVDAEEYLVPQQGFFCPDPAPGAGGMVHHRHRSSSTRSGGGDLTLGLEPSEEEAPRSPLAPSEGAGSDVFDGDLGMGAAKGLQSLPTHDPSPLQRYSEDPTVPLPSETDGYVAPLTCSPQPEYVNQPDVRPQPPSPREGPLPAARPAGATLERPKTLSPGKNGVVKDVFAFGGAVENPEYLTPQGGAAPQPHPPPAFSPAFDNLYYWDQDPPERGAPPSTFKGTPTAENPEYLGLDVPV
T1 sequence (P32239 whole entry): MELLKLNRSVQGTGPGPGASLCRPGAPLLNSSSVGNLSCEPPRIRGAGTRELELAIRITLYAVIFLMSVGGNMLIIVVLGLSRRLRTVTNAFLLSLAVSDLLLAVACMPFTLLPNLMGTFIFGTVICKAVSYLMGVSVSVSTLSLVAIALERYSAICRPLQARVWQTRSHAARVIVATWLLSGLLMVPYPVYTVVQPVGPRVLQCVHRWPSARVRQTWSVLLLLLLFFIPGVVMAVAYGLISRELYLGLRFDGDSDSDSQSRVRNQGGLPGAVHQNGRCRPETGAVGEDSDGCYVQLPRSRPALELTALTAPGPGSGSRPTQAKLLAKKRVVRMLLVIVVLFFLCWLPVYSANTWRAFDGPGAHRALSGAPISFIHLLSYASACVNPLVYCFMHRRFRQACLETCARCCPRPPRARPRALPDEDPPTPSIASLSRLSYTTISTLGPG
Tie-2, sequence (Q02763 23-1124): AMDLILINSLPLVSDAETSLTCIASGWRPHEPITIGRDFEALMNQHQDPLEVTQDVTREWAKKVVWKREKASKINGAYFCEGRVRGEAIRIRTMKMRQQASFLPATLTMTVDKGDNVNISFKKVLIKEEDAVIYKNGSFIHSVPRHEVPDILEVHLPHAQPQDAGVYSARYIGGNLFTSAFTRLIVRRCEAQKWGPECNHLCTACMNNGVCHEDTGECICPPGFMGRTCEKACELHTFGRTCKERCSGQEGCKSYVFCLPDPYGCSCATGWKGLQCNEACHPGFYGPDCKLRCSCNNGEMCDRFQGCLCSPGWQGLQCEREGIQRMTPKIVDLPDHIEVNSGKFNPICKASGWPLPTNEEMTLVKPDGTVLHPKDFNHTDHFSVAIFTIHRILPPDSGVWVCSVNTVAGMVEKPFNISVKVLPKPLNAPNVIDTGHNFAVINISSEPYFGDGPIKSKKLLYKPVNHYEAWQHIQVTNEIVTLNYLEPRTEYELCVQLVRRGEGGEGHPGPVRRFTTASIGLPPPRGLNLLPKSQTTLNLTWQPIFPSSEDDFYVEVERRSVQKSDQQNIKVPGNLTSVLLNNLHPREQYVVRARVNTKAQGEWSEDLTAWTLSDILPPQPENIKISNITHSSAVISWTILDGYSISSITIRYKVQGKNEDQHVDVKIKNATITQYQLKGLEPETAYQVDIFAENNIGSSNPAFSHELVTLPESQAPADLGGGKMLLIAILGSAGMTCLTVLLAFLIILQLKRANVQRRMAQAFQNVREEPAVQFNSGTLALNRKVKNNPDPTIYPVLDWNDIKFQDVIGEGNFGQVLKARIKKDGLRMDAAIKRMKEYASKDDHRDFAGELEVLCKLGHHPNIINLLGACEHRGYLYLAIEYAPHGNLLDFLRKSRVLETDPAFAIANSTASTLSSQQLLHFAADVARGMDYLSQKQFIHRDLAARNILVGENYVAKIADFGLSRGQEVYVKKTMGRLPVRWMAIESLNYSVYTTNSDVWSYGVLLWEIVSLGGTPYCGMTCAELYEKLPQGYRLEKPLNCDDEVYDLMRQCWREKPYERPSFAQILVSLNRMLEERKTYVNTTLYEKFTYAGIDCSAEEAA
T2 sequence (P22303 32-614, species assumed): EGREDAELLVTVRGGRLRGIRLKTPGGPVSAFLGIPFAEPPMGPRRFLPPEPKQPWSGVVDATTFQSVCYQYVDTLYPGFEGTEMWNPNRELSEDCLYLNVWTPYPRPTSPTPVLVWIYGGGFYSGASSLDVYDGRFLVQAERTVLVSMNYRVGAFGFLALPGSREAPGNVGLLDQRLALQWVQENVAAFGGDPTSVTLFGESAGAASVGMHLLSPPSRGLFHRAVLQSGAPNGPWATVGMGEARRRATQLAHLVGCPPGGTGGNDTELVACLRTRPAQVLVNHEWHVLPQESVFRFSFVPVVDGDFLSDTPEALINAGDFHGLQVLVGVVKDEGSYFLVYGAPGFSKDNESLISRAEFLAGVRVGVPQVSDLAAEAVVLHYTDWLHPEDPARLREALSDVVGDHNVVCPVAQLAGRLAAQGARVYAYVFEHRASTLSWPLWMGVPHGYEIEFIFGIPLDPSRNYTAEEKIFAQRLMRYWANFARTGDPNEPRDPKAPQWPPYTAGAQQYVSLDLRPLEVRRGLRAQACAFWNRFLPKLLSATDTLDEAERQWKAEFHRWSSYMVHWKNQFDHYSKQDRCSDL
T5 sequence (P08069 954-1367): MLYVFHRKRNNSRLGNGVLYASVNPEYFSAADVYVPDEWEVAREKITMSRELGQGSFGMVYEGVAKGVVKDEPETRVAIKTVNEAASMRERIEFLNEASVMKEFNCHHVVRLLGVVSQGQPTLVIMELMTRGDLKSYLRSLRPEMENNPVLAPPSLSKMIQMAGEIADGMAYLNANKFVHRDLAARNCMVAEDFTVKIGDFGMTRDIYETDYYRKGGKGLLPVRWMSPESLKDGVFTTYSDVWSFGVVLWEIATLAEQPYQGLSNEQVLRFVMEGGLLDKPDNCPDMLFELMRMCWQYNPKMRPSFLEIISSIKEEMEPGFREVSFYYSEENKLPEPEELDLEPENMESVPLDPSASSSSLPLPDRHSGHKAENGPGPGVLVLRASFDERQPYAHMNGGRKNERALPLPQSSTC
wt EGFR (A431), sequence (P00533 25-1210): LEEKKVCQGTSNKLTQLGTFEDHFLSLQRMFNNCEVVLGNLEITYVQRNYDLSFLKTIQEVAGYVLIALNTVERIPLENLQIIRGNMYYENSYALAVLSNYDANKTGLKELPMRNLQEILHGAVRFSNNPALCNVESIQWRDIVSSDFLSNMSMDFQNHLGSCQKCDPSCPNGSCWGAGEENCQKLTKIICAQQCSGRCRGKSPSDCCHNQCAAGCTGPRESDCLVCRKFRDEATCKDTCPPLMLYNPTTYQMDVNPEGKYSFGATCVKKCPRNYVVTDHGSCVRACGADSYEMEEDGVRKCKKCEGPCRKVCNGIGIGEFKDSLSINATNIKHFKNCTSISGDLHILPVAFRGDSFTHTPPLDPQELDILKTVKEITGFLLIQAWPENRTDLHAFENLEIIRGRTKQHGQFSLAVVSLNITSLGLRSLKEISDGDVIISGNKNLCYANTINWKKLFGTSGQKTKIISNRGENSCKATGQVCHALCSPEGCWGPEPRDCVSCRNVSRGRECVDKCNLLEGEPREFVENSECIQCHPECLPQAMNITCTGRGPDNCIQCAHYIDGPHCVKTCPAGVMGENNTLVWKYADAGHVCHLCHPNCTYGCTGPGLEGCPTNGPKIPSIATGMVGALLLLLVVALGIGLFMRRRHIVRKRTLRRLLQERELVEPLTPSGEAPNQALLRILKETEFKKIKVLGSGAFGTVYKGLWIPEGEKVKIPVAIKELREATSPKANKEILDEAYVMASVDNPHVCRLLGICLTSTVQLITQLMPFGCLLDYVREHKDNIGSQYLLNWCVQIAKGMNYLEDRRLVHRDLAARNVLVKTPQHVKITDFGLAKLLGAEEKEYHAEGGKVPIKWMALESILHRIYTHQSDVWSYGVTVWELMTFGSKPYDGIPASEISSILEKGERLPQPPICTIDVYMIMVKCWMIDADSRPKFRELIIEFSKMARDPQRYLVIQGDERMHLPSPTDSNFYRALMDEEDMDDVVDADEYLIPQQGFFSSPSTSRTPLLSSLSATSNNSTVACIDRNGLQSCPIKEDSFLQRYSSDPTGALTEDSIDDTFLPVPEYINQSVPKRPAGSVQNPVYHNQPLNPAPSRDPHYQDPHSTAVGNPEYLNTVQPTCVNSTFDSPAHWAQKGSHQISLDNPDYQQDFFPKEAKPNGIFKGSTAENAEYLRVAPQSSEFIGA
T4 sequence (P06213 987-1382): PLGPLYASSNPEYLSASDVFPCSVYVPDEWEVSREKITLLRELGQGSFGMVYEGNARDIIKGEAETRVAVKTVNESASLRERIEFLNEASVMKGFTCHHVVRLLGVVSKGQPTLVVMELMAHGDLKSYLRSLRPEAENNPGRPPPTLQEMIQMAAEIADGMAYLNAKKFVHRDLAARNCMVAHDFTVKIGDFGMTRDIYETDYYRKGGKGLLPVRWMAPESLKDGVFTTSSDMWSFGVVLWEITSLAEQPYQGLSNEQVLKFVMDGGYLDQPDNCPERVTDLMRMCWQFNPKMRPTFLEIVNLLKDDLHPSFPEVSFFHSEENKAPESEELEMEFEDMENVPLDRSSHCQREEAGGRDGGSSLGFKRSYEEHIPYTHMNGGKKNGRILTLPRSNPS

SMILES: COc1cc2c(Nc3ccc(Cl)c(Cl)c3F)ncnc2cc1OC[C@@H]1C[C@@H]2CN(C)C[C@@H]2C1 [XL-647, N-(3,4-dichloro-2-fluorophenyl)-7-({[(3aR,5r,6aS)-2-methyloctahydrocyclopenta[c]pyrrol-5-yl]methyl}oxy)-6-(methyloxy)quinazolin-4-amine]
- Inhibition, 10 μM XL-647 (GABA A, Agonist Site): 1.07%
- fraction unbound (in vitro): 0.04 to 0.09
- inhibition at 10 µM [1]: 17.1%
- inhibition at 10 µM (Acetylcholinesterase): 49.4%
- IC50 (ErbB2 [2]): 0.016 ± 0.003 µM
- IC50 (Tie-2): 0.054 ± 0.0134 µM
- IC50 (Flt1): 0.0565 ± 0.0155 µM
- deaths attributed to study drug [3]: no deaths attributed to study drug
- ATP-Competitive (ErbB2 [4]): Yes
- Ki (ErbB2 [4]): 0.003 µM
- Reversible (ErbB2 [4]): Yes
- decrease of BUN level (PCK rat; 7.5 mg/kg q.d.): 19.2%
- decrease of kidney weight (PCK rat; 7.5 mg/kg q.d.): 13.4%
- reduction of CT-CI (PCK rat; 7.5 mg/kg q.d.): 19.6%
- CT-CI (PCK rat; 7.5 mg/kg/day): 5.63
- Creatinine (PCK rat; 7.5 mg/kg/day): 0.48 ± 0.09 mg/dL
- Kidney/Body weight (PCK rat; 7.5 mg/kg/day): 1.5%
- BUN (PCK rat; [5]): 27.50 ± 3.74 mg/dL
- Kidney Weight (PCK rat; [5]): 5.77 ± 0.47 g
- BUN (PCK rat; [6]): 27.50 ± 3.74 mg/dL
- Kidney Weight (PCK rat; [6]): 5.77 g
- decrease of BUN level (PCK rat; 15 mg/kg q.d.): 28.8%
- decrease of kidney weight (PCK rat; 15 mg/kg q.d.): 26.0%
- reduction of CT-CI (PCK rat; 15 mg/kg q.d.): 35.7%
- CT-CI (PCK rat; 15 mg/kg/day): 4.50
- Creatinine (PCK rat; 15 mg/kg/day): 0.46 ± 0.07 mg/dL
- Kidney/Body weight (PCK rat; 15 mg/kg/day): 1.31%
- BUN (PCK rat; [7]): 24.25 ± 4.3 mg/dL
- Kidney Weight (PCK rat; [7]): 4.93 ± 0.42 g
- BUN (PCK rat; [8]): 24.25 ± 4.30 mg/dL
- Kidney Weight (PCK rat; [8]): 4.93 g
- IC50 (InsR): > 26 µM
- IC50 (IGF1R): > 10 µM
- IC50 (EphB4): 0.0014 ± 0.0002 µM
- Inhibition, 10 μM XL-647 (Estrogen): 15.75%
- IC50 (wt EGFR (A431)): 0.001 µM
